The results in this text go back to patent EP1066315B1 (University of Dundee, priority 1998, dated 2008).

Common to all, as to type: biochemical, human
One experiment concerns AEP. Kind of experiment: Hydrolysis of asparagine peptide substrate by B cell lysosomal fractions. As to conditions: increasing concentrations of peptide, Fig 3b. On the procedure: (§1) The invention will now be described by reference to the following Examples and Figures wherein • Figure 1: Processing of TTCF by a leupeptin-insensitive cysteine endopeptidase activity. (a) TTCF was digested in vitro in the presence of disrupted lysosomes (1-2 µg) in the presence or absence of iodoacetamide (1 mM), leupeptin, E64 or pepstatin (each at 0.1 mg/ml). Digestions were in 0.1 M NH4 acetate at pH 4.5 or Na2HPO4, pH 6.0 or 7.0. After 4 hours at 37°C, the reactions were separated by Tris-tricine SDS-PAGE and stained with Coomassie Blue. (b) Cleavage sites: TTCF digestion products were separated by SDS PAGE and electrophoretically transferred to nitrocellulose membrane. Individual fragments numbered 1-6 were subjected to 5 cycles of Edman degradation. N-terminal sequence obtained is shown in bold following upstream residues from TTCF (tetanus toxin numbering). […] (c) Each fraction was analysed by SDS-PAGE and Western blotting. […] Release of 7-amino-4-methyl coumarin was measured after 10, 20 or 30 minutes. […] At different times the cells were washed, fixed in 0.05 % glutaraldehyde and antigen presentation measured using proliferation of different autologous TTCF-specific T cell clones. c, AEP pre-processing of TTCF speeds antigen presentation. […] Presentation was measured after 60 minutes of antigen pulsing using EBV B cells. […]

The test system of a further experiment is cathepsin L/B. Kind of experiment: Hydrolysis of cathepsin L/B substrate Z-Phe-Arg-NHMec by B cell lysosomal fractions. As to conditions: Fig 3b. The procedure:
as §1

The subject of a further experiment is Cathepsin S. The experiment can be described thus: Hydrolysis of cathepsin S substrate by B cell lysosomal fractions. As to conditions: Fig 3b. On the procedure: as §1

The structures appear in SMILES notation. Residues, ends and D or L forms follow the SMILES beside them. *: point of attachment. Fmoc = O=C(OCC1c2ccccc2-c2ccccc21)*

With `C[C@H](NC(=O)OCC1c2ccccc2-c2ccccc21)C(=O)N[C@@H](CCC(=O)O)C(=O)N[C@@H](CC(N)=O)C(=O)N[C@@H](CCCCN)C(N)=O` [AENK, Ala-Glu-Asn-Lys-NH] (Fmoc-AENK-NH2), the “cleavage of Z-Val-Ala-Asn-NHMec” value in the experiment with AEP is “completely blocked”. In the experiment with cathepsin L/B, the “hydrolysis of the cathepsin L/B substrate, Z-Phe-Arg-NHMec” value is listed as “had no effect”. In addition, the “hydrolysis of the Cathepsin S substrate Z-Val-Val-Arg-HNMec” value in the experiment with Cathepsin S is “had no effect”.
